Four molecules from ChEMBL document CHEMBL5226380, “O-Alkylazoxymycins A-F, Naturally Occurring Azoxy-Aromatic Compounds from Streptomyces sp. Py50” (2023) can be followed below.

In brackets after ≈: the same amount, converted by molar mass. Counter-ions that a name gives are not always drawn.

For the experiment, the system named is Epidermophyton floccosum. As to the kind of experiment: Antifungal activity against Epidermophyton floccosum assessed as inhibition of fungal growth incubated for 24 hrs. It counts as functional.
For the molecule `O=C(O)CCCCCCc1ccccc1/N=[N+](\[O-])c1ccccc1CCCCC(=O)O`, the MIC50 is 23.1 µM (≈ 9.85 µg/mL).

As to `O=C(O)CCCCCCc1ccccc1/N=[N+](\[O-])c1ccccc1CCCCCCC(=O)O`, the MIC50 was 51.2 µM (≈ 23.3 µg/mL).

On to `O=C(O)CCCCCCc1ccccc1/[N+]([O-])=N/c1ccccc1CCCCC(=O)O`, for which the MIC50 was determined as 10.1 µM (≈ 4.31 µg/mL).

As to `CN(C/C=C/C#CC(C)(C)C)Cc1cccc2ccccc12` [TERBINAFINE HYDROCHLORIDE], the MIC50 was found to be 0.003 µM.
